The first assay concerns apple scab pathogen (Venturia inaequalis). In words: Apple scab control test. It counts as in vivo. The following applies: 336 h, 125 ppm drug solution sprayed onto apple seedlings (Orin), lesion area ratio 2 weeks after inoculation. The procedure:
5 parts by weight of the dihydropyrimidine compound of the present invention, 93.5 parts by weight of N,N-dimethylformamide, and 1.5 parts by weight of polyoxyethylene sorbitan monolaurate (TWEEN® 20) were mixed and dissolved to obtain an emulsion (I) including 5% of an active ingredient.
The control value was calculated by the following expression. Control value (%)=100−{lesion area ratio in treated group/lesion area ratio in untreated group}×100 [Expression 1]
Water was added to the emulsion (I) such that the concentration of the dihydropyrimidine compound reached 125 ppm to dissolve the emulsion, and a drug solution was obtained. Subsequently, the drug solution was sprayed onto apple seedlings (variety: “Orin”, leaf stage: 3 to 4) cultivated in seedling pots. After air drying, the seedlings were inoculated with conidiospores of an apple scab pathogen (Venturia inaequalis) (treated group). As a control, apple seedlings that were not sprayed with the drug solution were inoculated in the same manner (untreated group). The seedlings were left to stand in a humidified room at 20° C. using a 12 hour light/dark cycle.
On the day 2 weeks after the inoculation, the leaves of the apple seedlings were visually observed to determine the lesion area ratio, and the control value was calculated.
With `CCOC(=O)C(C)(C)Cn1c(=O)c(/C(C)=N/OC(C)C)cn(CC(=O)c2cc(F)ccc2OC)c1=O` [A-3], the pest or weed control at 125 ppm was at least 75%.

`C=CCON=Cc1cn(CC(OCCC#N)c2cc(F)ccc2OC)c(=O)n(C(C)C(=O)NC(C)C)c1=O` (stereo not drawn) [A-5]: the pest or weed control at 125 ppm is at least 75%.

Turning to `CON=Cc1cn(CC(OCCC#N)c2cc(F)ccc2OC)c(=O)n(C(C)C(=O)NC(C)C)c1=O` (stereo not drawn) [A-6], the pest or weed control at 125 ppm is at least 75%.

As to `CCON=Cc1cn(CC(O)c2cc(F)ccc2OC)c(=O)n(CC(C)(C)C(=O)NC(C)C)c1=O` (stereo not drawn) [A-8], the pest or weed control at 125 ppm was at least 75%.

Take `COc1ccc(F)cc1C(Cn1cc(C=NOCC2CC2)c(=O)n(C(C)C(=O)NC(C)C)c1=O)OCCC#N` (stereo not drawn) [A-9]: the pest or weed control at 125 ppm is at least 75%.

Take `CCON=Cc1cn(CC(OCCC#N)c2cc(F)ccc2OC)c(=O)n(CC(C)(C)C(=O)OCC)c1=O` (stereo not drawn) [A-13]: the pest or weed control at 125 ppm is at least 75%.

Take `CCON=Cc1cn(CC(O)c2cc(F)ccc2OC)c(=O)n(CC(C)(C)C(=O)OCC)c1=O` (stereo not drawn) [A-15]: the pest or weed control at 125 ppm is at least 75%.

For `CCON=Cc1cn(CC(OCCC#N)c2cc(F)ccc2OC)c(=O)n(CCNC(=O)c2ccc(F)cc2)c1=O` (stereo not drawn) [A-16], the pest or weed control at 125 ppm is at least 75%.

With `CCON=Cc1cn(CC(O)c2cc(F)ccc2OC)c(=O)n(CCNC(=O)OC(C)(C)C)c1=O` (stereo not drawn) [A-19], the pest or weed control at 125 ppm was at least 75%.

On to `CCON=Cc1cn(CC(=O)c2cc(F)ccc2OC)c(=O)n(CCNC(=O)OC(C)(C)C)c1=O` [A-20], for which the pest or weed control at 125 ppm is at least 75%.

On to `C#CCON=Cc1cn(CC(OCCC#N)c2cc(F)ccc2OC)c(=O)n(C(C)C(=O)NC(C)C)c1=O` (stereo not drawn) [A-21], for which the pest or weed control at 125 ppm was at least 75%.

Take `COc1ccc(F)cc1C(Cn1cc(C=NOCC(F)(F)F)c(=O)n(C(C)C(=O)NC(C)C)c1=O)OCCC#N` (stereo not drawn) [A-22]: the pest or weed control at 125 ppm was at least 75%.

In the case of `CCO/N=C(\C)c1cn(CC(=O)c2cc(F)ccc2OC)c(=O)n(CC(C)(C)C(=O)NC(C)C)c1=O` [A-26], the pest or weed control at 125 ppm was at least 75%.

Regarding `CCO/N=C(\C)c1cn(CC(=O)c2cc(F)ccc2OC)c(=O)n(CCNC(=O)C(C)C)c1=O` [A-36, N-(2-(5-(1-(ethoxyimino)ethyl)-3-(2-(5-fluoro-2-methoxyphenyl)-2-oxoethyl)-2,6-dioxo-3,6-dihydropyrimidin-1(2H)-yl)ethyl)isobutyramide], the pest or weed control at 125 ppm was at least 75%.

As for `COc1cccc(C(O)Cn2cc(/C(C)=N/OC(C)C)c(=O)n(C[C@H](C)NC(=O)C(C)C)c2=O)c1` (stereo partly drawn) [A-40], the pest or weed control at 125 ppm was at least 75%.

With `CCO/N=C(\C)c1cn(/C=C(\OC(=O)C(C)C)c2cc(F)ccc2OC)c(=O)n(C2CCCC2NC(=O)C(C)C)c1=O` (stereo not drawn) [A-44], the pest or weed control at 125 ppm was at least 75%.

Regarding `COc1ccc(F)cc1C(Cn1cc(C=NOC(C)C)c(=O)n(C(C)C(=O)N2CCSCC2)c1=O)OCCC#N` (stereo not drawn) [A-67], the pest or weed control at 125 ppm is at least 75%.

Take `COc1ccc(F)cc1C(O)Cn1cc(C=NOC(C)C)c(=O)n(C(C)C(=O)N2CCSCC2)c1=O` (stereo not drawn) [A-72]: the pest or weed control at 125 ppm is at least 75%.

For `COc1ccc(F)cc1C(O)Cn1cc(/C=N\OC(C)C)c(=O)n(CC(=O)N2CCCCC2)c1=O` (stereo not drawn) [A-83], the pest or weed control at 125 ppm was at least 75%.

Turning to `COc1ccc(F)cc1C(O)Cn1cc(C=NOC(C)C)c(=O)n(CC(=O)NC(C)C)c1=O` (stereo not drawn) [A-85], the pest or weed control at 125 ppm was at least 75%.

`COc1ccc(F)cc1C(O)Cn1cc(C=NOC(C)C)c(=O)n(C(C)C(=O)NC2CC2)c1=O` (stereo not drawn) [A-87]: the pest or weed control at 125 ppm is at least 75%.

With `COc1ccc(F)cc1C(Cn1cc(C=NOC(C)(C)C)c(=O)n(C(C)C(=O)NC(C)C)c1=O)OCCC#N` (stereo not drawn) [A-98], the pest or weed control at 125 ppm was at least 75%.

For `CCON=Cc1cn(CCc2ccccc2OC)c(=O)n(C(C)C(=O)OCC)c1=O` (stereo not drawn) [A-103], the pest or weed control at 125 ppm was at least 75%.

A further assay relates to Aspergillus niger. As to the kind of experiment: Antimicrobial test against Aspergillus niger. It counts as cell-based. To be noted: 96 h, Vogel medium, 25° C., 4 days in the dark, turbidity at 405 nm, read-out: growth inhibition rate. The procedure:
Spores of Aspergillus niger were added to and dispersed in a Vogel medium, and a dihydropyrimidine compound dissolved in dimethyl sulfoxide was added and mixed thereto at 25 ppm. The resulting solution was dispensed onto a 96-well microplate and cultivated in the dark at 25° C. for 4 days.
After the cultivation, the turbidity at a wavelength of 405 nm was measured by a microplate reader and compared with that in the untreated case to determine the growth inhibition of Aspergillus niger (%) was determined.
In the case of `COc1ccccc1C(O)Cn1cc(/C(C)=N/OC(C)C)c(=O)n(C[C@H](CC(C)C)NC(=O)C(C)C)c1=O` (stereo partly drawn) [C-43], the inhibition at 25 ppm was at least 50%.

Consider `CC[C@@H](Cn1c(=O)c(/C(C)=N/OC(C)C)cn(CC(O)c2cc(F)ccc2OC)c1=O)NC(=O)C(C)(C)C` (stereo partly drawn) [C-58], for which the inhibition at 25 ppm was at least 50%.

As to `COc1ccc(F)cc1C(O)Cn1cc(/C(C)=N/OC(C)C)c(=O)n(C[C@H](CC(C)C)NC(=O)N(C)C)c1=O` (stereo partly drawn) [C-60], the inhibition at 25 ppm was at least 50%.

As to `CCC(=O)N[C@@H](CC(C)C)Cn1c(=O)c(/C(C)=N/OC(C)C)cn(CC(O)c2cc(F)ccc2OC)c1=O` (stereo partly drawn) [C-62], the inhibition at 25 ppm was at least 50%.

Take `COc1ccc(F)cc1C(O)Cn1cc(/C(C)=N/OC(C)C)c(=O)n(C[C@@H](NC(=S)N(C)C)C(C)C)c1=O` (stereo partly drawn) [C-63]: the inhibition at 25 ppm was at least 50%.

Turning to `COc1ccc(F)cc1C(O)Cn1cc(/C(C)=N/OC(C)C)c(=O)n(C[C@@H](NC(=O)N(C)C)C(C)C)c1=O` (stereo partly drawn) [C-69], the inhibition at 25 ppm was at least 50%.

Consider `COc1ccc(F)cc1C(O)Cn1cc(/C(C)=N/OC(C)C)c(=O)n(C[C@@H](NC(=O)CSC)C(C)C)c1=O` (stereo partly drawn) [C-75], for which the inhibition at 25 ppm is at least 50%.

For the molecule `COc1ccccc1C(O)Cn1cc(/C(C)=N/OC(C)C)c(=O)n(C[C@@H](NC(=O)N(C)C)C(C)C)c1=O` (stereo partly drawn) [C-77], the inhibition at 25 ppm is at least 50%.

As to `COc1ccccc1C(O)Cn1cc(/C(C)=N/OC(C)C)c(=O)n(C[C@@H](NC(=O)C2CCC2)C(C)C)c1=O` (stereo partly drawn) [C-79], the inhibition at 25 ppm is at least 50%.

For `COc1ccc(F)cc1C(O)Cn1cc(/C(C)=N/OC(C)C)c(=O)n(C[C@@H](NC(=O)C(Cl)Cl)C(C)C)c1=O` (stereo partly drawn) [C-81], the inhibition at 25 ppm is at least 50%.

For the molecule `COc1ccc(F)cc1C(O)Cn1cc(/C(C)=N/OC(C)C)c(=O)n(C[C@@H](NC(=O)C2CC2)C(C)C)c1=O` (stereo partly drawn) [C-103], the inhibition at 25 ppm is at least 50%.

For the molecule `C=CC(=O)N[C@H](Cn1c(=O)c(/C(C)=N/OC(C)C)cn(CC(O)c2cc(F)ccc2OC)c1=O)C(C)C` (stereo partly drawn) [C-109], the inhibition at 25 ppm was at least 50%.

On to `COc1ccc(F)cc1C(O)Cn1cc(/C(C)=N/OC(C)C)c(=O)n(C[C@H](C)NC(=O)CC(C)C)c1=O` (stereo partly drawn) [C-124], for which the inhibition at 25 ppm is at least 50%.

For the molecule `COc1ccc(F)cc1C(O)Cn1cc(/C(C)=N/OC(C)C)c(=O)n(C[C@H](C)NC(=O)C(C)(C)C)c1=O` (stereo partly drawn) [C-126], the inhibition at 25 ppm was at least 50%.

On to `COc1ccccc1C(O)Cn1cc(/C(C)=N/OC(C)C)c(=O)n(C[C@@H](NC(=O)C(C)(C)C)C(C)C)c1=O` (stereo partly drawn) [C-129], for which the inhibition at 25 ppm was at least 50%.

For `CCC(=O)N[C@@H](C)Cn1c(=O)c(/C(C)=N/OC(C)C)cn(CC(O)c2cc(F)ccc2OC)c1=O` (stereo partly drawn) [C-137], the inhibition at 25 ppm is at least 50%.

In the case of `COc1ccc(F)cc1C(O)Cn1cc(/C(C)=N/OC(C)C)c(=O)n(C[C@H](C)NC(=O)C2CC2)c1=O` (stereo partly drawn) [C-141], the inhibition at 25 ppm was at least 50%.

As for `COc1ccc(F)cc1C(O)Cn1cc(/C(C)=N/OC(C)C)c(=O)n(C[C@H](Cc2ccccc2)NC(=O)C(C)C)c1=O` (stereo partly drawn) [C-168], the inhibition at 25 ppm was at least 50%.

With `CC/C(=N\OC(C)C)c1cn(CC(O)c2cc(F)ccc2OC)c(=O)n(C[C@H](C)NC(=O)C(C)C)c1=O` (stereo partly drawn) [C-172], the inhibition at 25 ppm was at least 50%.

Turning to `COC(=O)N[C@@H](C)Cn1c(=O)c(/C(C)=N/OC(C)C)cn(CC(O)c2cc(F)ccc2OC)c1=O` (stereo partly drawn) [C-186], the inhibition at 25 ppm is at least 50%.

`COc1ccc(F)cc1C(O)Cn1cc(/C(C)=N/OC(C)C)c(=O)n(C[C@H](C)NC(=O)OC(C)C)c1=O` (stereo partly drawn) [C-188]: the inhibition at 25 ppm was at least 50%.

In the case of `C/C(=N\OC(C)C)c1cn(CC(O)c2ccccc2OC(F)(F)F)c(=O)n(C[C@H](C)NC(=O)C(C)C)c1=O` (stereo partly drawn) [C-194, N-((2S)-1-(3-(2-hydroxy-2-(2-(trifluoromethoxy)phenyl)ethyl)-5-((E)-1-(isopropoxyimino)ethyl)-2,6-dioxo-3,6-dihydropyrimidin-1(2H)-yl)propan-2-yl)isobutyramide], the inhibition at 25 ppm was at least 50%.

For `COc1ccc(F)cc1C(O)Cn1cc(/C(C)=N/OC(C)C)c(=O)n(C[C@@H](NC(=O)C(C)C)c2ccccc2)c1=O` (stereo partly drawn) [C-202], the inhibition at 25 ppm was at least 50%.

`C/C(=N\OC(C)C)c1cn(CC(O)c2ccccc2C)c(=O)n(C[C@H](C)NC(=O)C(C)C)c1=O` (stereo partly drawn) [C-213]: the inhibition at 25 ppm is at least 50%.

For `C=C(C)C(=O)N1CCC[C@H]1Cn1c(=O)c(/C(C)=N/OC(C)C)cn(CC(O)c2cc(F)ccc2OC)c1=O` (stereo partly drawn) [D-11], the inhibition at 25 ppm was at least 50%.

Turning to `COc1ccc(F)cc1C(O)Cn1cc(/C(C)=N/OC(C)C)c(=O)n(C[C@@H]2CCCN2C(=O)C(C)C)c1=O` (stereo partly drawn) [D-20], the inhibition at 25 ppm was at least 50%.

As for `COc1ccc(F)cc1C(O)Cn1cc(/C(C)=N/OC(C)C)c(=O)n(C[C@@H]2CCCN2C(=O)N(C)C)c1=O` (stereo partly drawn) [D-22], the inhibition at 25 ppm is at least 50%.

As for `COc1ccc(Cn2c(=O)c(/C(C)=N/OC(C)C)cn(CC(O)c3cc(F)ccc3OC)c2=O)cc1` [D-52], the inhibition at 25 ppm is at least 50%.

For the molecule `COc1cccc(Cn2c(=O)c(/C(C)=N/OC(C)C)cn(CC(O)c3cc(F)ccc3OC)c2=O)c1` [D-53], the inhibition at 25 ppm was at least 50%.

Turning to `COc1ccccc1Cn1c(=O)c(/C(C)=N/OC(C)C)cn(CC(O)c2cc(F)ccc2OC)c1=O` [D-54], the inhibition at 25 ppm is at least 50%.

For `COc1ccc(F)cc1C(O)Cn1cc(/C(C)=N/OC(C)C)c(=O)n(Cc2ccccn2)c1=O` [D-56], the inhibition at 25 ppm is at least 50%.
